Reference: patent US20130096099A1, “METHOD OF TREATING BRAIN CANCER” (NIIKI PHARMA INC., priority 2010, published 2013)
Entries after “also recorded” stand apart in the source; their conditions may differ.

Experiments:
U87 cell line = conditions: Bowles et al., J. Neurosurg., 73:248-253 (1990); cited from earlier work
glioma cell line U87 [1] = assay: Live-cell staining with Calcein AM / image analysis in 3-D HuBiogel tumor beads; type: cell-based; conditions: 3-D HuBiogel tumor beads from U87, Calcein AM, Day 3
Protocol: (§1) The compound sodium trans-[tetrachlorobis(1H-indazole)ruthenate(III)] was tested in a 3-dimentional tumor model derived from glioma cell line U87. Specifically, cells were trypsinized, washed, counted by trypan blue exclusion. Tumor beads were then prepared by mixing 20,000 cells/10 μl of HuBiogel (4 mg/mL) (See U.S. patent application Ser. No. 10/546,506, which is incorporated herein by reference). The 3-D tumor beads were cultivated for 72 hours in multi-well plates with complete media (10% FBS) in a 37° C. incubator +5% CO2. Mini-tumors were treated with various concentrations of the test compound sodium trans-[tetrachlorobis(1H-indazole)ruthenate(III)] in media (final 0.2-0.3% DMSO) or control (DMSO). Repeated drug treatment was done by removing the culture media and replacing with fresh media with drug compound or DMSO. On Day 3, MTT assay and live-cell staining with Calcein AM were performed (5 beads/assay set).
(§2) Statistical analysis of data sets (Average, T-test, GI-50) was performed using MS-Excel program. […] See e.g., Bowles et al., J. Neurosurg., 73:248-253 (1990).

glioma cell line U87 [2] = assay: MTT assay in 3-dimentional tumor model (HuBiogel) derived from glioma cell line U87; type: cell-based
Protocol: as §1, §2

SMILES	resistance of U87 cell line to drug (U87 cell line)	tumor killing in live-cell staining/image analysis (glioma cell line U87 [1])	tumor proliferation activity / growth inhibition (MTT assay) (glioma cell line U87 [2]; 3-D HuBiogel tumor beads from U87, Day 3, FIG. 1)	GI50 (glioma cell line U87 [2]; 3-D HuBiogel tumor beads from U87, MTT assay on Day 3, read-out: average GI-50 (the drug concentration required for growth inhibition at 50%))
O=NN(CCCl)C(=O)NCCCl [BCNU, bis-chloronitrosourea]	relatively resistant			
[Cl][Ru-]([Cl])([Cl])[Cl].[Na+].c1ccc2[nH]ncc2c1.c1ccc2[nH]ncc2c1 [sodium trans-[tetrachlorobis(1H-indazole)ruthenate(III)]]		dose-dependent tumor killing effective	dose-dependent growth inhibition; also recorded: significantly inhibited tumor proliferation activity	95 µM
